Reference: patent US20240033124A1, “DRUG DELIVERY CONTACT LENS AND OPHTHALMIC PHARMACEUTICAL COMPOSITION” (DAE WON PHARMACEUTICAL CO., LTD, priority 2021, published 2024)

Experiment: Drug release test according to blocking ratio of chamber unit (Franz diffusion cell)
Format: physicochemical
Protocol: In order to evaluate drug release characteristics according to the size of the blocking unit (blocking film) that is bonded to the chamber unit, which is for storing the drug, and is for blocking the release of the drug stored in the chamber unit, contact lenses for drug delivery of FIG. 4 having various blocking ratios were prepared.
Specifically, contact lenses for drug delivery bonded to blocking units (blocking films) capable of blocking a […], with respect to a total area of the chamber unit were prepared, a drug was injected into each chamber unit, and drug release characteristics were evaluated.
The drug release test was conducted by putting the contact lens for drug delivery into a Franz diffusion cell and evaluating, and the test was conducted while maintaining the temperature at 37.0±0.5° C. and by using a phosphate buffer solution of pH 7.4. A solution in which lifitegrast was dissolved in distilled water was injected into the chamber unit of contact lenses for drug delivery, and the contact lenses were mounted on a donor. In addition, the experiment was conducted in a manner that 5 mL of the solution in which the drug was released was collected with a syringe from each container, and filled with the same amount of buffer solution at a predetermined sampling time (0.5, 1, 1.5, 2, 3, 4, 6 hours), after 5 mL of the solution containing the collected drug was filtered through a syringe filter, 2 mL each was put into a vial and used as a test solution, and the obtained test solution was analyzed by using high-performance liquid chromatography (HPLC).

Compound: CS(=O)(=O)c1cccc(C[C@H](NC(=O)c2c(Cl)cc3c(c2Cl)CCN(C(=O)c2ccc4ccoc4c2)C3)C(=O)O)c1 [lifitegrast]
- Cumulative drug release (%) (blocking ratio 0%, 0 h): 0%
- Cumulative drug release (%) (blocking ratio 0%, 0.5 h): 95%
- Cumulative drug release (%) (blocking ratio 0%, 1 h): 100%
- Cumulative drug release (%) (blocking ratio 0%, 1.5 h): 100%
- Cumulative drug release (%) (blocking ratio 0%, 2 h): 100%
- Cumulative drug release (%) (blocking ratio 0%, 3 h): 100%
- Cumulative drug release (%) (blocking ratio 0%, 4 h): 100%
- Cumulative drug release (%) (blocking ratio 0%, 5 h): 100%
- Cumulative drug release (%) (blocking ratio 0%, 6 h): 100%
- Cumulative drug release (%) (blocking ratio 2.5%, 0 h): 0%
- Cumulative drug release (%) (blocking ratio 2.5%, 0.5 h): 90%
- Cumulative drug release (%) (blocking ratio 2.5%, 1 h): 95%
- Cumulative drug release (%) (blocking ratio 2.5%, 1.5 h): 100%
- Cumulative drug release (%) (blocking ratio 2.5%, 2 h): 100%
- Cumulative drug release (%) (blocking ratio 2.5%, 3 h): 100%
- Cumulative drug release (%) (blocking ratio 2.5%, 4 h): 100%
- Cumulative drug release (%) (blocking ratio 2.5%, 5 h): 100%
- Cumulative drug release (%) (blocking ratio 2.5%, 6 h): 100%
- Cumulative drug release (%) (blocking ratio 50%, 0 h): 0%
- Cumulative drug release (%) (blocking ratio 50%, 0.5 h): 86%
- Cumulative drug release (%) (blocking ratio 50%, 1 h): 90%
- Cumulative drug release (%) (blocking ratio 50%, 1.5 h): 93%
- Cumulative drug release (%) (blocking ratio 50%, 2 h): 96%
- Cumulative drug release (%) (blocking ratio 50%, 3 h): 100%
- Cumulative drug release (%) (blocking ratio 50%, 4 h): 100%
- Cumulative drug release (%) (blocking ratio 50%, 5 h): 100%
- Cumulative drug release (%) (blocking ratio 50%, 6 h): 100%
- Cumulative drug release (%) (blocking ratio 75%, 0 h): 0%
- Cumulative drug release (%) (blocking ratio 75%, 0.5 h): 61%
- Cumulative drug release (%) (blocking ratio 75%, 1 h): 77%
- Cumulative drug release (%) (blocking ratio 75%, 1.5 h): 83%
- Cumulative drug release (%) (blocking ratio 75%, 2 h): 87%
- Cumulative drug release (%) (blocking ratio 75%, 3 h): 91%
- Cumulative drug release (%) (blocking ratio 75%, 4 h): 94%
- Cumulative drug release (%) (blocking ratio 75%, 5 h): 97%
- Cumulative drug release (%) (blocking ratio 75%, 6 h): 100%
- Cumulative drug release (%) (blocking ratio 85%, 0 h): 0%
- Cumulative drug release (%) (blocking ratio 85%, 0.5 h): 49%
- Cumulative drug release (%) (blocking ratio 85%, 1 h): 59%
- Cumulative drug release (%) (blocking ratio 85%, 1.5 h): 65%
- Cumulative drug release (%) (blocking ratio 85%, 2 h): 73%
- Cumulative drug release (%) (blocking ratio 85%, 3 h): 79%
- Cumulative drug release (%) (blocking ratio 85%, 4 h): 87%
- Cumulative drug release (%) (blocking ratio 85%, 5 h): 93%
- Cumulative drug release (%) (blocking ratio 85%, 6 h): 98%
- Cumulative drug release (%) (blocking ratio 95%, 0 h): 0%
- Cumulative drug release (%) (blocking ratio 95%, 0.5 h): 33%
- Cumulative drug release (%) (blocking ratio 95%, 1 h): 41%
- Cumulative drug release (%) (blocking ratio 95%, 1.5 h): 51%
- Cumulative drug release (%) (blocking ratio 95%, 2 h): 59%
- Cumulative drug release (%) (blocking ratio 95%, 3 h): 71%
- Cumulative drug release (%) (blocking ratio 95%, 4 h): 83%
- Cumulative drug release (%) (blocking ratio 95%, 5 h): 90%
- Cumulative drug release (%) (blocking ratio 95%, 6 h): 94%
- Cumulative drug release (%) (blocking ratio 100%, 0 h): 0%
- Cumulative drug release (%) (blocking ratio 100%, 0.5 h): 0%
- Cumulative drug release (%) (blocking ratio 100%, 1 h): 0%
- Cumulative drug release (%) (blocking ratio 100%, 1.5 h): 0%
- Cumulative drug release (%) (blocking ratio 100%, 2 h): 0%
- Cumulative drug release (%) (blocking ratio 100%, 3 h): 0%
- Cumulative drug release (%) (blocking ratio 100%, 4 h): 0%
- Cumulative drug release (%) (blocking ratio 100%, 5 h): 0%
- Cumulative drug release (%) (blocking ratio 100%, 6 h): 0%
